Our source for the Km values is publication PMC3688941, “Characterization of a Chitin-Binding Protein from Bacillus thuringiensis HD-1” (PLoS ONE, 2013).

The subject of experiment [1] is T1, Bt-Chitinase.
T1 construct: EC 3.2.1.14
As to the kind of experiment: fluorometric chitinase assay. The class given is biochemical, Bacillus thuringiensis serovar kurstaki. The conditions noted are these: 50 mM sodium phosphate pH 7.0, 30 °C, 20 min; without Bt-CBP21; footnote gives substrate as 50 µM. The text has this:
fluorometric chitinase assay on Bt-Chitinase

The subject of experiment [2] is Ha-Chitinase. The experiment can be described thus: fluorometric chitinase assay. The note with it: 50 mM sodium phosphate pH 7.0, 30 °C, 20 min; without Bt-CBP21; footnote gives substrate as 50 µM. Type of experiment: biochemical, Helicoverpa armigera. The text has this: fluorometric chitinase assay on Ha-Chitinase

A word on the Km: it is the substrate concentration at which the rate is half of its maximum. `CC(=O)N[C@H]1[C@H](Oc2ccc3c(C)cc(=O)oc3c2)O[C@H](CO)[C@@H](O[C@@H]2O[C@H](CO)[C@@H](O)[C@H](O)[C@H]2NC(C)=O)[C@@H]1O` [4-MU-(GlcNAc)2]: the Km in experiment [1] came to 30 µM; in experiment [2], 1.4 µM.
